# Entries after “also recorded” stand apart in the source; their conditions may differ.
# What was measured:
# RIOK2 KD HSPCs = assay: Erythroid differentiation in RIOK2 knockdown HSPCs; format: cell-based, human; settings: RIOK2 KD HSPCs vs DMSO; FIG. 6B, FIG. 45
# Source text: (§1) Since RIOK2-deficient primary human HSPCs effectively model impaired erythropoiesis leading to anemia (Ghosh et la. (2022) Nat Immunol 23: 109-121), it was next investigated whether treatment with formoterol fumarate (FF) alleviates anemia in this in vitro model. To address this, RIOK2-proficient and deficient primary human HSPCs via CRISPR-Cas9 based genome-editing were generated (FIG. 6A), as previously described (Ghosh et al. (2022) Nat Immunol 23: 109-121). […] Since RPS14 deletion is reported to be MDS-genic (Ebert et al. (2008) Nature 451: 335-339; Schneider et al. (2016) Nat Med 22: 288-297), RPS14 was similarly knocked down in primary human HSPCs (FIG. 6C).
# (§2) Primary human HSPCs were genome-edited, as previously described (Ghosh, S., Raundhal, M., Myers, S. A., Carr, S. A., Chen, X., Petsko, G. A., and Glimcher, L. H. (2022). Identification of RIOK2 as a master regulator of human blood cell development. Nat Immunol 23, 109-121).
# RPS14 KD HSPCs = assay: Erythroid differentiation in RPS14 knockdown HSPCs; format: cell-based, human; settings: RPS14 KD HSPCs vs DMSO; FIG. 6D, FIG. 46
# Source text: as §1
# (§3) Next, to validate the specificity of FF for β2-adrenoreceptors, ADRB2 was knocked down in primary human HSPCs and treated with FF.
# as §2
# ADRB2-deficient HSPCs = assay: Erythroid differentiation in ADRB2-deficient HSPCs (specificity for β2-adrenoreceptors); format: cell-based, human; settings: ADRB2 knocked down HSPCs; FIG. 6E-6F
# Source text: as §3, §2
# [1] = test system: MDS patient-derived bone marrow cells; assay: Liquid erythroid differentiation culture of MDS patient-derived bone marrow cells (ex vivo); format: cell-based, human; settings: for erythroid differentiation (CD235a): n=40 MDS patients
# Source text: These findings prompted further testing to determine whether administration of FF in MDS patient-derived bone marrow (BM) samples improves erythroid differentiation in an ex vivo setting. To explore this, cells isolated from BM aspirates of de-identified MDS patients were procured. Next, the MDS patient-derived BM cells were placed in liquid erythroid differentiation culture, as previously described (Khajuria et al. (2018) Cell 173: 90-103), with or without FF treatment. […] To further validate this observation, the impact of FF from another vendor (Sigma) was tested on MDS patient-derived cells. […] Next, CD34+ progenitors were FACS-sorted from the MDS patient-derived BM aspirates and seeded in semi-solid methylcellulose culture media with vehicle (DMSO) or FF treatment. […] Therefore, the FDA-approved drug formoterol fumarate could be repurposed to reverse anemia in a range of hematological disorders.
# CD34+ primary human hematopoietic stem and progenitor cells (HSPCs) were obtained from Fred-Hutchinson Cancer Research center, Seattle, USA and cultured, as previously described. Formoterol fumarate was purchased from Selleckchem (#S2020) and Sigma (#F9552), dissolved (in DMSO) and stored as per manufacturer's instructions, and used at the final working concentrations as indicated. Frozen BM aspirates from de-identified MDS patients were obtained using our IRB approved protocol (#21-632) from the Pasquarello tissue bank at DFCI.
# [2] = test system: phenylhydrazine (PHZ)-mediated stress-induced anemic mice; assay: Sublethal PHZ (50 mg/kg)-induced hemolytic anemia, female mice, FF i.p.; format: in vivo
# [3] = test system: phenylhydrazine (PHZ)-treated mice; assay: FF/Arf i.p. in PHZ-treated mice at sub-lethal dose of 60 mg/kg; format: in vivo
# [4] = test system: PHZ-induced lethal hemolytic anemia mice; assay: PHZ lethal dose (135 mg/kg), FF oral gavage; format: in vivo; settings: 0.1/0.5 mg/kg o.g.; PHZ 135 mg/kg; FIG. 54
# Source text: Log-rank (Mantel-Cox) test. n=5 mice per group. All comparisons were done w.r.t. vehicle (DMSO) treated controls.
# naive wild-type mice = assay: FF in naive wild-type mice without PHZ stress (FIG. 62 setup); format: in vivo; settings: for % change in body weights: FIG. 63
# Apcmin mice = assay: FF i.p. in Apcmin mice (intestinal adenoma model that develops anemia); format: in vivo
# Procedure: This is a mouse model of intestinal adenoma that develops anemia. FF treatment at a low dose of 0.3 mg/kg daily (i.p.) alleviates RBC parameters, such as (FIG. 74A) RBCs (FIG. 74B) hematocrit% (HCT%) and (FIG. 74C) hemoglobin (Hb) in Apcmin mice that spontaneously develop anemia at ~3 months age. * p<0.05, *** p<0.001, 2-way ANOVA. n=5-6 mice per group. Comparisons are shown in between Apcmin+FF versus Apcmin+Veh. Veh: vehicle; LC: littermate control mice.
# [5] = test system: cisplatin-treated CKD mice; assay: FF i.p. in cisplatin-driven chronic kidney disease (CKD) mice; format: in vivo
# Procedure: Comparisons are shown in between cisplatin+FF treated mice as compared to cisplatin+ vehicle treated mice.
# FF treatment at a low dose of 0.3 mg/kg 3× weekly (i.p.) alleviates RBC parameters, such as % changes in (FIG. 78A) hematocrit% (HCT%) (FIG. 78B) hemoglobin (Hb) and (FIG. 78C) RBCs in mice with cisplatin-driven CKD. * p<0.05, 2-way ANOVA. n=4-5 mice per group. Comparisons are shown in between cisplatin+FF treated mice as compared to cisplatin+ vehicle treated mice.
compound,measurement,setting,value
"COc1ccc(C[C@@H](C)NC[C@H](O)c2ccc(O)c(NC=O)c2)cc1.O=C(O)/C=C/C(=O)O [FF, (E)-but-2-enedioic acid;N-[2-hydroxy-5-[(1R)-1-hydroxy-2-[[(2R)-1-(4-methoxyphenyl)propan-2-yl]amino]ethyl]phenyl]formamide]",erythroid differentiation (CD235a),RIOK2 KD HSPCs,stimulated erythropoiesis in RIOK2-knockdown (KD) HSPCs; also recorded: to levels comparable with basal erythropoiesis in control cells; also recorded: increases erythroid differentiation (CD235a) in RIOK2 KD HSPCs; also recorded: markedly rescues erythropoiesis
same,erythroid differentiation (CD235a),RPS14 KD HSPCs,significantly increased erythroid differentiation in RPS14 KD HSPCs; also recorded: increases erythroid differentiation (CD235a) in RPS14 KD HSPCs; also recorded: moderately rescues erythropoiesis
same,erythroid differentiation,ADRB2-deficient HSPCs,failed to induce erythropoiesis in ADRB2-deficient HSPCs; also recorded: inability of FF to induce erythroid differentiation
same,myelopoiesis/megakaryopoiesis,"[1]; 40 MDS patient-derived cells, FIG. 9",does not affect myelopoiesis/megakaryopoiesis
same,erythroid differentiation (CD235a),"[1]; FF from Selleckchem, FIG. 8A",significantly enhanced erythroid differentiation in BM cells in the majority of MDS patients; also recorded: enhances erythroid differentiation in MDS patient-derived bone marrow cells
same,erythroid differentiation (CD235a),"[1]; FF from Sigma, FIG. 8B",boosted erythropoiesis in the majority of MDS patients; also recorded: enhances erythroid differentiation in MDS patient-derived bone marrow cells
same,body weights (absolute and % change),"[2]; 0.1/0.3 mg/kg daily i.p., female, FIG. 18A",sufficient to revive body weights; also recorded: increases absolute body weights and % change in body weights
same,HCT % and RBC counts,"[2]; 0.1/0.3 mg/kg, FIG. 18B",produced long-term benefits in elevating HCT % and RBC counts
same,Hb production,"[2]; 0.1/0.3 mg/kg, FIG. 18B",significantly enhanced Hb production
same,"RBC parameters (Hb, HCT %, RBC numbers) in peripheral blood","[2]; 0.1/0.3 mg/kg, FIG. 18B",enhances and sustains RBC parameters
same,platelet counts,[2]; FIG. 18C,not statistically significant
same,WBC and monocyte counts,"[2]; day 4 and over 14 days, FIG. 18C","provided an immediate boost to WBC and monocyte counts after PHZ administration, no long term benefits were observed; also recorded: increases WBC and monocyte counts in the peripheral blood after 4 days of daily i.p. injections but does not sustain the impact over 14 days"
same,colony forming unit-erythroid (CFU-e) from BM,"[3]; 0.3 mg/kg i.p., FIG. 39A",enhances colony forming unit-erythroid (CFU-e)
same,transferrin receptor expression in CFU-e derived from BMPs,[3]; FIG. 39B,transferrin receptor expression is enhanced
same,Hemoglobin (Hb) in peripheral blood,"[3]; after 7 and 14 days of i.p., FIG. 35",increase Hemoglobin (Hb)
same,RBC parameters (HCT % and RBCs) in peripheral blood,"[3]; after 7 days of i.p., FIG. 34",increases RBC parameters
same,LS-K and LSK cells in bone marrow progenitors,"[3]; after 14 days of i.p., FIG. 36A-36B","increase LSK, LS-K, and mitochondrial activity"
same,mitochondrial membrane potential (TMRE staining) in bone marrow progenitors,"[3]; after 14 days of i.p., FIG. 36C","increase LSK, LS-K, and mitochondrial activity"
same,megakaryocyte erythrocyte progenitors (MEP) in BM,"[3]; after 14 days of i.p., FIG. 37A",increase megakaryocyte erythrocyte progenitors (MEP)
same,body weights,"[3]; i.p., PHZ 60 mg/kg, FIG. 32",enhances body weights
same,platelets and WBCs in peripheral blood,"[3]; i.p., PHZ 60 mg/kg, FIG. 33",do not affect platelets and WBCs
same,survival (Kaplan-Meier),[4],confers striking survival benefits
same,% change in body weights,naive wild-type mice; 0.1/0.3/0.5 mg/kg,increases body weights
same,viability of BM progenitors,"naive wild-type mice; 0.1/0.3/0.5 mg/kg, FIG. 67A",substantially increases
same,LS-K cells in the BM,"naive wild-type mice; 0.1/0.3/0.5 mg/kg, FIG. 67B",substantially increases
same,MEP and MkP in BM,"naive wild-type mice; 0.1/0.3/0.5 mg/kg, FIG. 68A-68B",significantly elevates megakaryocyte erythroid progenitors (MEP) and megakaryocytic progenitors (MkP)
same,"expression of erythroid genes EPOR, ASXL1, NFE2 in sorted erythroid progenitors","naive wild-type mice; 0.1/0.3/0.5 mg/kg, FIG. 70A-70C",substantially increases the expression of erythroid genes
same,expression of ADRB2 in sorted erythroid progenitors,"naive wild-type mice; 0.1/0.3/0.5 mg/kg, FIG. 70D",does not influence the expression of β2-AR-encoding gene ADRB2
same,% change in body weights,naive wild-type mice; 0.1 and 0.3 mg/kg groups,did not show statistical significance
same,HCT%,"naive wild-type mice; 0.1 and 0.5 mg/kg groups, FIG. 64C",did not show statistical significance
same,"RBC parameters (RBC numbers, Hb, HCT %) in peripheral blood",naive wild-type mice; FIG. 64,enhances and sustains RBC parameters
same,WBC numbers and platelet counts,"naive wild-type mice; FIG. 65A, 65C",does not influence
same,monocyte counts in peripheral blood,naive wild-type mice; FIG. 65B,modestly impacts monocyte counts
same,mitochondrial biogenesis in BMPs (MitoTracker staining),naive wild-type mice; FIG. 66A,enhances mitochondrial biogenesis
same,mitochondrial membrane potential in BMPs (TMRE staining),naive wild-type mice; FIG. 66B,enhances mitochondrial membrane potential
same,mitochondrial superoxide production in BMPs (MitoSox staining),naive wild-type mice; FIG. 66C,significantly reduces mitochondrial superoxide production
same,"RBC parameters (RBCs, HCT%, Hb)","Apcmin mice; 0.3 mg/kg daily i.p., FIG. 74",elevates RBC parameters
same,body weight,Apcmin mice; FIG. 75,modestly increases body weight
same,"% changes in RBC parameters (HCT%, Hb, RBCs)","[5]; 0.3 mg/kg 3× weekly i.p., FIG. 78",rescues anemia
same,"absolute values of RBC parameters (Hb, HCT %, RBCs)","[5]; 0.3 mg/kg 3× weekly i.p., FIG. 79",elevates RBC parameters
same,terminal erythroid progenitors in the BM,"[5]; 0.3 mg/kg 3× weekly i.p., FIG. 81A",elevates erythroid progenitors
same,serum BUN and creatinine levels,[5]; FIG. 77,does not affect serum BUN and creatinine levels
same,WBCs and platelets,[5]; FIG. 80,does not affect WBC parameters
same,body weights,"[5]; i.p., vs cisplatin+vehicle, FIG. 76",significantly rescues (elevates) body weights

# Reference: patent US12697313B2, “Methods of treating anemia using formoterol or a pharmaceutically acceptable salt thereof” (Dana-Farber Cancer Institute, Inc., priority 2022, dated 2026)
